The IC50 is the concentration needed to halve the response being measured.

Each structure is given as a SMILES string.

human h-PGDS, sequence (O60760 whole entry): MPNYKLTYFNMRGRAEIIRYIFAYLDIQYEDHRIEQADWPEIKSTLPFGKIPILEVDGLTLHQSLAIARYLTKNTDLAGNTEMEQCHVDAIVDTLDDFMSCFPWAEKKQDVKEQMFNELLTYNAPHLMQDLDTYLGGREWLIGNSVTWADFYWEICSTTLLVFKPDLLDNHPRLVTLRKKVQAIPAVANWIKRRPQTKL

The assay concerns the target human h-PGDS (Homo sapiens, UniProt O60760). Briefly: Enzyme Immunoassay (EIA) method (Assay 2). It is filed as biochemical. Particulars: assigned. From the text:
The compounds of the present invention can be tested for enzymatic inhibiting activity against PGD2 Synthase according to either one of the following assays.
Assay 2: Enzyme Immunoassay (EIA) Method
• a. Preparation of 0.1M K2HPO4/KH2PO4 buffer (pH ˜7.4) • Prepare 0.1 M KH2PO4 from 1M KH2PO4 (Sigma, Cat# P-8709) • Prepare 0.1 M K2HPO4 from powder of K2HPO4 (Fisher, BP363-500) • Mix 0.1 M K2HPO4 with 0.1 M KH2PO4 to adjust pH to 7.4. • b. Preparation of 0.5% γ-globulin • Add 0.1 g of γ-globulin (Sigma, Cat# G-5009) to 20 mL 0.1 M K2HPO4/KH2PO4 buffer (pH ˜7.4) and make 1-ml/vial aliquots and store in −80° C. • c. Preparation of 100 mM GSH • Add 307 mg of GSH (Sigma, Cat# G-6529) to 10 mL 0.1 M K2HPO4/KH2PO4 buffer (pH ˜7.4) and store at −80° C. • d. Preparation of Reaction buffer: • 198 mL of 0.1M K2HPO4/KH2PO4 buffer (pH ˜7.4) • 2 mM GSH—Prepared from 100 mM GSH • 0.4 g Glycerol • 2 mL of 0.5% γ-globulin • Add 0.4 g of glycerol and 2 mL of 0.5% γ-globulin to 198 mL of 0.1 M K2HPO4/KH2PO4 • buffer (pH7.4). • Add 0.4 mL of 100 mM GSH to 19.6 ml reaction buffer before the assay (enough for two 96-well plates). • e. Preparation of FeCl2/citric acid stopping solution: (8 mg/mL FeCl2, 0.1 M citric acid) • Add 40 mg fresh FeCl2 (IGN, Cat# 158046) to 5 ml 0.1 M citric acid (Sigma, Cat# C0759). • f. Preparation of MOX reagent: • 10% EtOH-Add 1 mL of EtOH to 9 mL of ultra pure H2O • Dissolve 0.1 g of methoxylamine (Cayman, Cat# 400036/) in 10% EtOH (10 mL). • Add 0.82 g of sodium acetate (Cayman, Cat#400037) to MOX solution and dissolve. II. Materials and Method • Dimethylsulfoxide (DMSO; Sigma; Cat# D2650) • Prostaglandin D2-MOX express EIA kit (Caymen Chemical, Catalog No. 500151)
Before the assay, cool down 10 mL of acetone in polypropylene tubes and empty 96 well plates in ice. All the procedures except compound dilution are performed on ice.
• 1. Dilute Compound in DMSO
• 2. Dilute 2 μL of each above concentration of compound to 38 μL of reaction buffer in 96-well plates and mix. IV. Enzyme and Substrate Solution Preparation • 1. Preparation of 0.39 ng/μL enzyme solution (0.35 ng/μL at final after compound addition). • Mix 4 μL of 4 mg/mL human h-PGDS with 396 μL of reaction buffer (to give enzyme concentration 40 μg/mL). Add 46.8 μL of 40 μg/mL h-PGDS to 4.753 mL of reaction buffer to give a total volume of 4.8 mL • 2. Preparation of Substrate Solution (PGH2): Add 0.375 mL of 0.1 mg/mL of PGH2 to 1.625 mL acetone. V. Enzyme Reaction: • 1. Add 60 μL of enzyme solution to compound well and positive control (without compound) in U-bottom polypropylene plate on ice. • 2. Add 60 μL of reaction buffer and 6.6 μL of 5% DMSO in reaction buffer into negative control wells in the plate. • 3. Add 6.6 μL of diluted compound in reaction buffer to the compound wells and mix. • 4. Add 6.6 μL of 5% DMSO in reaction buffer to the positive control well. • 5. Incubate the plate in ice for at least 30 min. • 6. Add 20 μL of substrate (PGH2) solution to compound, negative and positive control wells in the U-bottom 96 well plate on ice. • 7. Dry the plate in cold room for about 25-28 min. • 8. Pipette 45 μL of enzyme solution (above) into 96-wells with dried PGH2 and mix 3 times. Incubate on the ice for 1 min. • 9. Add 45 μL of FeCl2 solution into each wells and mix. • 10. Add 90 μL of MOX solution and mix. • 11. Incubate for 30 min at 60° C. • 12. Dilute the samples 2500× with EIA buffer. VI. EIA assay • Perform the assay according to the procedure in EIA kit provided by Cayman. […]
As for `CNS(=O)(=O)c1cccc(CNC(=O)c2cnc(-c3cccc(F)c3)nc2C)c1` [Example 85, 2-(3-Fluoro-phenyl)-4-methyl-pyrimidine-5-carboxylic acid 3-methylsulfamoyl-benzylamide], inhibition was half-maximal at 106 nM (IC50). `Cc1nc(-c2ncc(C(=O)NC3CCOCC3)cn2)cs1` [Example 118, 2-(2-Methyl-thiazol-4-yl)-pyrimidine-5-carboxylic acid (tetrahydro-pyran-4-yl)-amide] gave an IC50 of 82 nM. Take `CC(C)(CO)NS(=O)(=O)c1cccc(CNC(=O)c2cnc(-c3cccc(F)c3)nc2)c1` [Example 54, 2-(3-Fluoro-phenyl)-pyrimidine-5-carboxylic acid 3-(2-hydroxy-1,1-dimethyl-ethylsulfamoyl)-benzylamide]: the IC50 stood at 60 nM.

Take `O=C(NCc1ccccc1)c1cnc(-c2ccccc2)nc1` [Example 1, 2-Phenyl-pyrimidine-5-carboxylic acid benzylamide]: the midpoint of inhibition, the IC50, lay at 10 nM. As for `O=C(NCc1cccc(S(=O)(=O)NC2CC2)c1)c1cnc(-c2cccc(F)c2)nc1` [Example 48, 2-(3-Fluoro-phenyl)-pyrimidine-5-carboxylic acid 3-cyclopropylsulfamoyl-benzylamide], the figure is 132 nM. `NS(=O)(=O)CCNC(=O)c1cnc(-c2ccccc2)nc1` [Example 108, 2-Pheny-pyrimidine-5-carboxylic acid (2-sulfamoyl-ethyl)-amide] displayed an IC50 of 55 nM. Then `CN(C)CC(C)(C)CNS(=O)(=O)c1cccc(CNC(=O)c2cnc(-c3cccc(F)c3)nc2)c1` [Example 65, 2-(3-Fluoro-phenyl)-pyrimidine-5-carboxylic acid 3-(3-dimethylamino-2,2-dimethyl-propylsulfamoyl)-benzylamide], with 35 nM; and `NS(=O)(=O)c1cccc(CNC(=O)c2cnc(-c3cccc(F)c3)nc2)c1` [Example 55, 2-(3-Fluoro-phenyl)-pyrimidine-5-carboxylic acid 3-sulfamoyl-benzylamide], with 31 nM. As for `CNS(=O)(=O)c1cccc(CNC(=O)c2cnc(-c3cccc(F)c3)nc2)c1` [Example 97, 2-(3-Fluoro-phenyl)-pyrimidine-5-carboxylic acid 3-methylsulfamoyl-benzylamide], the figure is 9.5 nM; as for `CNS(=O)(=O)c1cccc(CNC(=O)c2cnc(-c3cc(F)cc(F)c3)nc2)c1` [Example 40, 2-(3,5-Difluoro-phenyl)-pyrimidine-5-carboxylic acid 3-methylsulfamoyl-benzylamide], 49 nM; as for `CN(C)S(=O)(=O)CCNC(=O)c1cnc(-c2ccccc2)nc1` [Example 109, 2-Pheny-pyrimidine-5-carboxylic acid (2-dimethylsulfamoyl-ethyl)-amide], 82 nM.

`CCNS(=O)(=O)c1cccc(CNC(=O)c2cnc(-c3cccc(F)c3)nc2)c1` [Example 45, 2-(3-Fluoro-phenyl)-pyrimidine-5-carboxylic acid 3-ethylsulfamoyl-benzylamide] came in with an IC50 of 58 nM. Then `COCCCNS(=O)(=O)c1cccc(CNC(=O)c2cnc(-c3cccc(F)c3)nc2)c1` [Example 51, 2-(3-Fluoro-phenyl)-pyrimidine-5-carboxylic acid 3-(3-methoxy-propylsulfamoyl)-benzylamide], with 37 nM; and `O=C(Nc1nc(-c2ccccc2)ns1)c1cnc(-c2ccccc2)nc1` [Example 110, 2-Phenyl-pyrimidine-5-carboxylic acid (3-phenyl-[1,2,4]thiadiazol-5-yl)-amide], with 30 nM; and `Cc1nc(-c2cccc(F)c2)ncc1C(=O)NCc1cccc(CNS(C)(=O)=O)c1` [Example 68, 2-(3-Fluoro-phenyl)-4-methyl-pyrimidine-5-carboxylic acid 3-(methanesulfonylamino-methyl)-benzylamide], with 48.5 nM. Then `NS(=O)(=O)c1ccc(NC(=O)c2cnc(-c3ccccc3)nc2)cc1` [Example 30, 2-Phenyl-pyrimidine-5-carboxylic acid (4-sulfamoyl-phenyl)-amide], with 5 nM; and `NS(=O)(=O)c1ccc(CNC(=O)c2cnc(-n3cccn3)nc2)cc1` [Example 117, 2-Pyrazol-1-yl-pyrimidine-5-carboxylic acid 4-sulfamoyl-benzylamide], with 266 nM. Compound `O=C(NCc1cccc(S(=O)(=O)NCCCO)c1)c1cnc(-c2cccc(F)c2)nc1` [Example 49, 2-(3-Fluoro-phenyl)-pyrimidine-5-carboxylic acid 3-(3-hydroxy-propylsulfamoyl)-benzylamide] gave an IC50 of 22 nM. Then `CN(C)CCNS(=O)(=O)c1cccc(CNC(=O)c2cnc(-c3cccc(F)c3)nc2)c1` [Example 63, 2-(3-Fluoro-phenyl)-pyrimidine-5-carboxylic acid 3-(2-dimethylamino-ethylsulfamoyl)-benzylamide], with 45 nM; and `O=C(NCc1cccc(S(=O)(=O)NCCN2CCOCC2)c1)c1cnc(-c2cccc(F)c2)nc1` [Example 56], with 37 nM.

In the case of `Cc1nc(-c2cccc(F)c2)ncc1C(=O)NCc1cccc(CS(=O)(=O)NC(C)C)c1` [Example 71, 2-(3-Fluoro-phenyl)-4-methyl-pyrimidine-5-carboxylic acid 3-(isopropylsulfamoyl-methyl)-benzylamide], 34 nM corresponded to half-maximal inhibition (IC50). As for `CN1CCC(NC(=O)c2cnc(-c3ccccc3)nc2)CC1` [Example 38, 2-Phenyl-pyrimidine-5-carboxylic acid (1-methyl-piperidin-4-yl)-amide], it took 96 nM to reach half-maximal inhibition (IC50).

The values are drawn from patent US8202863B2 (Aventis Pharmaceuticals Inc., priority 2005, dated 2012).
